Test results from patent US12252524B2, “GIP/GLP1 co-agonist compounds” (Eli Lilly and Company, priority 2018, dated 2025).
Numbered stars: 1 amine (or outer) side, 2 acyl side, 3 side chain; on linkers, the order of the positions; unused ones are H or OH. Square brackets hold non-standard residues; d marks the D form. Side chains are listed from the residue outwards. Peptide text beside a SMILES is read from it. * marks the point of attachment. C20 diacid = O=C(O)CCCCCCCCCCCCCCCCCCC(=O)*; C18 diacid = O=C(O)CCCCCCCCCCCCCCCCC(=O)*; γGlu = O=C(O)[C@H](CCC(=O)[*:2])N[*:1]; αMeL = CC(C)C[C@](C)(N)C(=O)O; AEEA = NCCOCCOCC(=O)O; Aib = CC(C)(N)C(=O)O

Experiments:
human GLP-1R [1] = biological target: T1, human GLP-1R (Homo sapiens, UniProt P43220); assay: GLP-1R HEK293 cell membrane [35S]GTPγS binding assay; format: biochemical; set-up: expressed in transfected cells; host or cells: HEK293 cells expressing human GLP-1R; membranes; conditions: HEK293 cell membranes expressing human GLP-1R, [35S]GTPγS binding; read-out: hGLP1R GTPgS Rel EC50 nM (SEM, n)
T1 sequence (P43220 24-463): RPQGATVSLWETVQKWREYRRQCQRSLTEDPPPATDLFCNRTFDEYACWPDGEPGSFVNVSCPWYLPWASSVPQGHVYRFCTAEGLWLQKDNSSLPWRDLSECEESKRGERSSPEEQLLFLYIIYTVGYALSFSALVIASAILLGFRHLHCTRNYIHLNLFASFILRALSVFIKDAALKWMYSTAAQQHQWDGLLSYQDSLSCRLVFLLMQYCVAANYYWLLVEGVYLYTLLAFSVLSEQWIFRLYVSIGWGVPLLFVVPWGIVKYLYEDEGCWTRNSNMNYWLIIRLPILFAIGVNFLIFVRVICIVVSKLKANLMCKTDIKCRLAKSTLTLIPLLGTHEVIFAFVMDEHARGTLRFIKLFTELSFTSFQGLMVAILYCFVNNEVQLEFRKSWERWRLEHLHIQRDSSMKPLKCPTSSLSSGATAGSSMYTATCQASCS
Protocol: The GLP-1 receptor is a G-protein coupled receptor that increases GTP-bound Gas upon ligand induced receptor activation. The potency of peptides to stimulate-GLP-1R induced activation of Gac is determined using preparations of purified membranes from HEK293 cells expressing the human GLP-1R. […] The test peptides are solubilized in DMSO and diluted in reaction buffer containing 5 μg of membrane in 20 mM HEPES pH 7.4, 50 mM NaCl, 5 mM MgCl2, 40 μg/ml saponin, 0.1% BSA, and […] ^35S-labeled GTPTS for 30 minutes at room temperature. Reactions are terminated by addition of 0.2% Nonidet β-40 detergent containing rabbit anti-Gas polyclonal antibody and 0.5 mg of anti-rabbit polyvinyltoluene beads. Mixtures are developed for 30 minutes, centrifuged at 80×g for 10 minutes, and counted for 1 minute/well using a MicroBeta TriLux instrument. Peptide concentration-response curves are fit to a four-parameter logistic model to calculate potency as an EC50.

human GIP receptor = biological target: T2, human GIP receptor (Homo sapiens, UniProt P48546); assay: [125I]-GIP binding (SPA), human GIP receptor; conditions: read-out: hGIPR Ki, nM (SEM, n)
T2 construct: expressed in transfected cells; crude membranes
T2 sequence (P48546 22-466): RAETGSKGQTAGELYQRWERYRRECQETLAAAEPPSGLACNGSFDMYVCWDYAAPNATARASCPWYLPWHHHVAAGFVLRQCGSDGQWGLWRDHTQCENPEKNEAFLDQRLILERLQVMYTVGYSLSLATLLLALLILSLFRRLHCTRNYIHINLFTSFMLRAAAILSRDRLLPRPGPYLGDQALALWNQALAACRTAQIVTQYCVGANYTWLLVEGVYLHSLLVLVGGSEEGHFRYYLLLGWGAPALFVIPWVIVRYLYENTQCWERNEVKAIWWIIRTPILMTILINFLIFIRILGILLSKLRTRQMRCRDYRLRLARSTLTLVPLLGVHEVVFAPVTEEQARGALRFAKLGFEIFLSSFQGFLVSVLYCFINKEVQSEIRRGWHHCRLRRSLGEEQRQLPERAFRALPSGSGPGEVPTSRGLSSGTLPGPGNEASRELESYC

[2] = biological target: T3, gastric inhibitory peptide receptor (GIPR) (Homo sapiens, UniProt P48546); assay: cAMP pharmacological functional assay in presence of casein, hGIPR; format: cell-based; conditions: HEK293 cells expressing hGIPR, 0.1% Casein, geometric mean; read-out: hGIPR cAMP Rel EC50 nM (SEM, n)
T3 sequence (P48546 22-466): T2 sequence (P48546 22-466)

human Gcg receptor = biological target: T4, human Gcg receptor (Homo sapiens, UniProt P47871); assay: [125I]-Glucagon binding (SPA), human Gcg receptor; conditions: read-out: hGLcgR Ki, nM (SEM, n)
T4 construct: expressed in transfected cells; crude membranes
T4 sequence (P47871 26-477): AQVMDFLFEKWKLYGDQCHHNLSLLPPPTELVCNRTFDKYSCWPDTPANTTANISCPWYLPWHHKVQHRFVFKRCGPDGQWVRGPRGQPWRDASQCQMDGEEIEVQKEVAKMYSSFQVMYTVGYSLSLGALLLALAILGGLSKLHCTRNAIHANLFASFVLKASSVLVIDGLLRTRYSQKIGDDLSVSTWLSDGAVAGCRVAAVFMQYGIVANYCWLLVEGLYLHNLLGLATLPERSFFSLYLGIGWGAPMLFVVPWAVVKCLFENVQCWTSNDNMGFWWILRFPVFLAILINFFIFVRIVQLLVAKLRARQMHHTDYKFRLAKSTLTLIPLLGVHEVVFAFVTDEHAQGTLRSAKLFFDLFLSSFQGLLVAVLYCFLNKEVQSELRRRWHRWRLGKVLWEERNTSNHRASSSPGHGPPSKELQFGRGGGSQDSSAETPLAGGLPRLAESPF
Outline: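 Scintillation counts are taken after membranes and WGA beads incubate and settle for 12 hours at room temperature. Buffer is 25 mM HEPES, pH 7.4, with CaCl2, MgCl2, bacitracin and Tween-20. Ki values, from four-parameter IC50 fits, are geometric means over independent days.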

human GLP-1R [3] = biological target: T1, human GLP-1R; assay: [125I]-GLP-1 binding (SPA), human GLP-1 receptor; set-up: expressed in transfected cells; crude membranes; conditions: read-out: hGLP1R Ki, (nM) (SEM, n)
Outline: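 Frozen cell pellets are lysed on ice in hypotonic Tris buffer, pH 7.5, homogenized, and centrifuged to a membrane pellet resuspended at about 1 to 3 mg/mL. Binding is then measured in HEPES-based buffer at pH 7.4, and curves are fitted to give IC50 and Ki.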

[4] = biological target: human GLP-1 receptor (GLP-1R) (Homo sapiens, UniProt P43220); assay: cAMP pharmacological functional assay in presence of casein, hGLP-1R; format: cell-based; conditions: HEK293 cells expressing hGLP-1R, 0.1% Casein, geometric mean; read-out: hGLP1R cAMP Rel EC50 nM (SEM, n)
human GLP-1 receptor (GLP-1R), sequence (P43220 24-463): as the sequence (P43220 24-463) above

Structure (SMILES)	EC50 (human GLP-1R [1]) [nM]	Ki (human GIP receptor) [nM]	EC50 [2] [nM]	Ki (human Gcg receptor) [nM]	Ki (human GLP-1R [3]) [nM]	EC50 [4] [nM]
CC[C@H](C)[C@H](NC(=O)[C@H](CC(C)C)NC(=O)[C@H](Cc1ccc(O)cc1)NC(=O)[C@H](CCC(=O)O)NC(=O)[C@@H](NC(=O)[C@H](Cc1ccccc1)NC(=O)[C@H](CCC(=O)O)NC(=O)C(C)(C)NC(=O)[C@H](CCC(N)=O)NC(=O)[C@H](C)NC(=O)[C@H](CCCCNC(=O)COCCOCCNC(=O)COCCOCCNC(=O)CC[C@H](NC(=O)CCCCCCCCCCCCCCCCCCC(=O)O)C(=O)O)NC(=O)[C@H](CCCCN)NC(=O)[C@H](CC(=O)O)NC(=O)[C@H](CC(C)C)NC(=O)[C@H](CC(C)C)NC(=O)[C@@H](NC(=O)[C@H](CO)NC(=O)[C@H](Cc1ccc(O)cc1)NC(=O)[C@H](CC(=O)O)NC(=O)[C@H](CO)NC(=O)[C@@H](NC(=O)[C@H](Cc1ccccc1)NC(=O)[C@@H](NC(=O)CNC(=O)[C@H](CCC(=O)O)NC(=O)C(C)(C)NC(=O)[C@@H](N)Cc1ccc(O)cc1)[C@@H](C)O)[C@@H](C)O)[C@@H](C)CC)[C@@H](C)CC)C(=O)N[C@@H](C)C(=O)NCC(=O)NCC(=O)N1CCC[C@H]1C(=O)N[C@@H](CO)C(=O)N[C@@H](CO)C(=O)NCC(N)=O [Example 318] (H-Y[Aib]EGTFTSDYSILLDKK([AEEA-AEEA-γGlu-C20 diacid])AQ[Aib]EFIEYLIAGGPSSG-NH2; N-terminus assumed)	0.415	0.0452	0.0547	730	7.52	0.124
CC[C@H](C)[C@H](NC(=O)[C@H](CC(C)C)NC(=O)[C@H](Cc1ccc(O)cc1)NC(=O)[C@H](CCC(=O)O)NC(=O)[C@@H](NC(=O)[C@H](Cc1ccccc1)NC(=O)[C@H](CCC(=O)O)NC(=O)C(C)(C)NC(=O)[C@H](CCC(N)=O)NC(=O)[C@H](C)NC(=O)[C@H](CCCCNC(=O)COCCOCCNC(=O)COCCOCCNC(=O)CC[C@H](NC(=O)CCCCCCCCCCCCCCCCCCC(=O)O)C(=O)O)NC(=O)[C@H](CCCCN)NC(=O)[C@H](CC(=O)O)NC(=O)[C@H](CC(C)C)NC(=O)[C@H](CC(C)C)NC(=O)[C@@H](NC(=O)[C@H](CO)NC(=O)[C@H](Cc1ccc(O)cc1)NC(=O)[C@H](CC(=O)O)NC(=O)[C@H](CO)NC(=O)[C@@H](NC(=O)[C@H](Cc1ccccc1)NC(=O)[C@@H](NC(=O)CNC(=O)[C@H](CCC(=O)O)NC(=O)C(C)(C)NC(=O)[C@@H](N)Cc1ccc(O)cc1)[C@@H](C)O)[C@@H](C)O)[C@@H](C)CC)[C@@H](C)CC)C(=O)N[C@@H](C)C(=O)NCC(=O)NCC(=O)N1CCC[C@H]1C(=O)N[C@@H](CO)C(=O)N[C@@H](CO)C(=O)NCC(=O)N[C@@H](C)C(=O)N1CCC[C@H]1C(=O)N1CCC[C@H]1C(=O)N1CCC[C@H]1C(=O)N[C@@H](CO)C(N)=O [Example 319] (H-Y[Aib]EGTFTSDYSILLDKK([AEEA-AEEA-γGlu-C20 diacid])AQ[Aib]EFIEYLIAGGPSSGAPPPS-NH2)	0.657	0.0349	0.054	> 984	3.61	0.113
CC[C@H](C)[C@H](NC(=O)[C@H](CC(C)C)NC(=O)[C@H](Cc1ccc(O)cc1)NC(=O)[C@H](CCC(=O)O)NC(=O)[C@@H](NC(=O)[C@H](Cc1ccccc1)NC(=O)[C@H](C)NC(=O)C(C)(C)NC(=O)[C@H](CCC(N)=O)NC(=O)[C@H](C)NC(=O)[C@H](CCCCNC(=O)COCCOCCNC(=O)COCCOCCNC(=O)CC[C@H](NC(=O)CCCCCCCCCCCCCCCCC(=O)O)C(=O)O)NC(=O)[C@H](CCC(=O)O)NC(=O)[C@H](CC(=O)O)NC(=O)[C@H](CC(C)C)NC(=O)[C@](C)(CC(C)C)NC(=O)[C@@H](NC(=O)[C@H](CO)NC(=O)[C@H](Cc1ccc(O)cc1)NC(=O)[C@H](CC(=O)O)NC(=O)[C@H](CO)NC(=O)[C@@H](NC(=O)[C@H](Cc1ccccc1)NC(=O)[C@@H](NC(=O)CNC(=O)[C@H](CCC(=O)O)NC(=O)C(C)(C)NC(=O)[C@@H](N)Cc1ccc(O)cc1)[C@@H](C)O)[C@@H](C)O)[C@@H](C)CC)[C@@H](C)CC)C(=O)N[C@@H](CCC(=O)O)C(=O)NCC(=O)NCC(=O)N1CCC[C@H]1C(=O)N[C@@H](CO)C(=O)N[C@@H](CO)C(=O)NCC(=O)N[C@@H](C)C(=O)N1CCC[C@H]1C(=O)N1CCC[C@H]1C(=O)N1CCC[C@H]1C(=O)N[C@@H](CO)C(N)=O [Example 323] (H-Y[Aib]EGTFTSDYSI[αMeL]LDEK([AEEA-AEEA-γGlu-C18 diacid])AQ[Aib]AFIEYLIEGGPSSGAPPPS-NH2)	0.79	0.0516	0.0251	300	1.65	0.0597
CC[C@H](C)[C@H](NC(=O)[C@H](CC(C)C)NC(=O)[C@H](Cc1ccc(O)cc1)NC(=O)[C@H](CCC(=O)O)NC(=O)[C@@H](NC(=O)[C@H](Cc1ccccc1)NC(=O)[C@H](C)NC(=O)C(C)(C)NC(=O)[C@H](CCC(N)=O)NC(=O)[C@H](C)NC(=O)[C@H](CCCCNC(=O)COCCOCCNC(=O)COCCOCCNC(=O)CC[C@H](NC(=O)CCCCCCCCCCCCCCCCCCC(=O)O)C(=O)O)NC(=O)[C@H](CCCCN)NC(=O)[C@H](CC(=O)O)NC(=O)[C@H](CC(C)C)NC(=O)[C@](C)(CC(C)C)NC(=O)[C@@H](NC(=O)[C@H](CO)NC(=O)[C@H](Cc1ccc(O)cc1)NC(=O)[C@H](CC(=O)O)NC(=O)[C@H](CO)NC(=O)[C@@H](NC(=O)[C@H](Cc1ccccc1)NC(=O)[C@@H](NC(=O)CNC(=O)[C@H](CCC(=O)O)NC(=O)C(C)(C)NC(=O)[C@@H](N)Cc1ccc(O)cc1)[C@@H](C)O)[C@@H](C)O)[C@@H](C)CC)[C@@H](C)CC)C(=O)N[C@@H](C)C(=O)NCC(=O)NCC(=O)N1CCC[C@H]1C(=O)N[C@@H](CO)C(=O)N[C@@H](CO)C(=O)NCC(=O)N[C@@H](C)C(=O)N1CCC[C@H]1C(=O)N1CCC[C@H]1C(=O)N1CCC[C@H]1C(=O)N[C@@H](CO)C(N)=O [Example 324] (H-Y[Aib]EGTFTSDYSI[αMeL]LDKK([AEEA-AEEA-γGlu-C20 diacid])AQ[Aib]AFIEYLIAGGPSSGAPPPS-NH2)	0.475	0.0278	0.0374	449	0.609	0.0926
CC[C@H](C)[C@H](NC(=O)[C@H](CC(C)C)NC(=O)[C@H](Cc1ccc(O)cc1)NC(=O)[C@H](CCC(=O)O)NC(=O)[C@@H](NC(=O)[C@H](Cc1ccccc1)NC(=O)[C@H](C)NC(=O)C(C)(C)NC(=O)[C@H](CCC(N)=O)NC(=O)[C@H](C)NC(=O)[C@H](CCCCNC(=O)COCCOCCNC(=O)COCCOCCNC(=O)CC[C@H](NC(=O)CCCCCCCCCCCCCCCCCCC(=O)O)C(=O)O)NC(=O)[C@H](CCCCN)NC(=O)[C@H](CC(=O)O)NC(=O)[C@H](CC(C)C)NC(=O)[C@H](CC(C)C)NC(=O)[C@@H](NC(=O)[C@H](CO)NC(=O)[C@H](Cc1ccc(O)cc1)NC(=O)[C@H](CC(=O)O)NC(=O)[C@H](CO)NC(=O)[C@@H](NC(=O)[C@](C)(Cc1ccccc1F)NC(=O)[C@@H](NC(=O)CNC(=O)[C@H](CCC(=O)O)NC(=O)C(C)(C)NC(=O)[C@@H](N)Cc1ccc(O)cc1)[C@@H](C)O)[C@@H](C)O)[C@@H](C)CC)[C@@H](C)CC)C(=O)N[C@@H](CCC(=O)O)C(=O)NCC(=O)NCC(=O)N1CCC[C@H]1C(=O)N[C@@H](CO)C(=O)N[C@@H](CO)C(=O)NCC(=O)N[C@@H](C)C(=O)N1CCC[C@H]1C(=O)N1CCC[C@H]1C(=O)N1CCC[C@H]1C(=O)N[C@@H](CO)C(N)=O [Example 325]	0.414	0.0209	0.0301	13	0.475	0.0586
